Assay results published in patent US20220133761A1, “NEUTROPHIL APOPTOSIS INDUCED BY NANOPARTICLES FOR TREATING INFLAMMATORY DISEASES” (WASHINGTON STATE UNIVERSITY, priority 2020, published 2022).

Key:
[1] = tested on: differentiated HL-60 cells; test: Apoptosis analysis, Annexin V-FITC / 7AAD staining (flow cytometry, CLSM); format: cell-based, human
Procedure: To investigate the apoptosis of neutrophils induced by DOX, Annexin V-FITC and 7AAD were used to double stain differentiated HL-60 cells. […] The cells were re-suspended in a binding buffer for staining of Annexin V-FITC and 7AAD (emission at 650 nm) according to the manufacturer's protocol (Invitrogen). Stained cells were analyzed using a flow cytometer and imaged by a Nikon A1R^+ confocal laser scanning microscope.

[2] = tested on: heart, liver, spleen, lung and kidney; test: Toxicity by histological analysis (H&E staining of major organs); conditions: 0.2 mg/kg DOX
Procedure: After different treatments (healthy, PBS, 4 mg/kg of free DOX, 0.2 mg/kg of free DOX, DOX-hyd-BSA NPs and DOX-ab-BSA NPs, equal to 0.2 mg/kg of DOX for NPs), mice were sacrificed by carbon dioxide asphyxiation. […] The samples were imaged by a microscope (ZEISS, Observer. Z1, USA).

[3] = tested on: LPS-challenged mice; test: Acute lung inflammation mouse model (i.t. LPS), BALF neutrophils and cytokines; format: in vivo; conditions: vs free DOX and DOX-ab-BSA NPs
Procedure: Mice were anesthetized, and placed in a supine position head up on a board tilted at 15°. Afterwards, 10 mg/kg of LPS in HBSS was intratracheally (i.t.) administrated to mice with a FMJ-250 High Pressure Syringe (Penn-Century, Wyndmoor, Pa.). Mice were held upright for 2 min after administration.
Mice were challenged with i.t. injection of LPS (10 mg/kg). […] At 20 h post-drug administration, the mice were anesthetized with i.v. injection of a mixture of ketamine and xylazine. The BALF was collected by inserting a needle into the upper trachea. 0.9 mL HBSS was infused into the lungs and carefully withdrawn to obtain BALF. This process was repeated three times. BALF was collected and centrifuged at 350 g for 10 min at 4° C. The supernatant was collected for ELISA analysis. Afterwards, the cells were re-suspended in 0.5 ml of HBSS. The total cell number was determined with a hemocytometer.
Flow cytometry was utilized to quantify neutrophils in BALF. In detail, neutrophils from BALF were washed with 1 mL of 5% BSA in HBSS and centrifuged at 350 g for 10 min at 4° C. for three times, which was finally re-suspended in 400 μL of 5% BSA in HBSS. 3 μL of Alexa Fluor-647-labeled anti-mouse LY-6G antibody was added and incubated for 20 min in the dark, followed by washing with 1 mL of 0.1% BSA in HBSS under centrifugation for three times. Samples were then re-suspended in 400 μL 0.1% BSA in HBSS and filtered by a 100 μm filter, and analyzed by flow cytometer (Accuri C6 flow cytometer, BD Biosciences, San Jose, Calif.).
BALF was collected and centrifuged at 350 g for 10 min as described above. Supernatants from BALF were harvested for ELISA analysis. Concentrations of TNF-α, IL-6 and IL-1β in supernatants were determined with commercial ELISA kits according to the manufacturer's instructions (Biolegend, San Diego, Calif.). The triplicate experiment was conducted.

[4] = Serum stability of nanoparticles in PBS with 20% FBS; format: physicochemical; conditions: pH 7.4, incubation for 4 days
Procedure: Particle size and polydispersity indexes (PDI) were measured using Malvern Zetasizer Nano90 (Westborough, Mass.). The samples were incubated in PBS at pH 7.4 for 2 h, and the measurements were conducted in a 1.0 mL quartz cuvette using a diode laser of 633 nm at 25° C. and a scattering angle was fixed at 90°. To evaluate their serum stability, nanoparticles were dispersed in 20% FBS PBS solution (pH 7.4) at a final concentration of 1 mg/mL. Nanoparticle sizes were measured at the predefined time points. Transmission electron microscopy (TEM) of nanoparticles was also performed using a FEI Technai G2 20 Twin TEM (Hillsboro, Oreg.).

[5] = tested on: LPS-challenged mice; test: Therapeutic efficacy in sepsis mouse model (neutrophils, cytokines, MPO in blood, BALF, organs); format: in vivo
Procedure: Adult CD-1 mice were i.p. administrated with LPS (50 mg/kg). 4 hours later, the mice were grouped randomly (10 mice per group) and i.v. injected with PBS, free DOX and DOX-hyd-BSA NPs (equal to 0.2 mg kg^−1 of free DOX), respectively. The healthy mice were used as […]. At predetermined time points (16 h and 72 h after LPS challenge), mouse BALF, blood and major organs were collected. Cell number and inflammatory factors (TNF-α, IL-6 and IL-1β) in BALF were determined by hemocytometer and ELISA, respectively as aforementioned. Blood was collected as described above. The plasma was harvested for ELISA assay after the blood was centrifuged at 1500 g for 20 min. Cell number was counted as above. The organs were homogenized with PBS (100 mg/mL) to obtain the pipettable homogenate for myeloperoxidase (MPO) activity and ELISA assay.

[6] = tested on: cerebral I/R mouse model; test: Middle cerebral artery occlusion (MCAO) cerebral I/R mouse model; format: in vivo
Procedure: CD1 mice were used. Mice were anesthetized using 100 mg/kg of ketamine and 5 mg/kg of xylazine. They were positioned in the supine position on a heating pad. A carotid artery (CA) was exposed via the midline neck incision. An external carotid artery (ECA) was separated and occulated with two knots. Next, the internal carotid artery (ICA) was isolated, and the CA and ICA were clipped. A small hole was cut in the ECA above the second knot. A 6-0 medium MCAO suture was then introduced into ICA. Mice were kept for 60 min after occlusion in a heated cage, and the suture was withdrawn for reperfusion. Finally, the skin was closed and the mice were returned to the individual cage.
The damaged brain tissues were collected 24 h after MCAO and homogenized in PBS with 5% hexadecyltrimethylammonium bromide (HTAB). The homogenate was sonicated, and centrifuged at 13,000 rpm for 10 min. Next, 10 μL supernatant was loaded into each well of a 96-well plate. A solution of o-Dianisidine dihydrochloride with 0.0005% hydrogen peroxide in potassium phosphate buffer was added to the samples. Absorbance was measured at 450 nm. MPO activity is expressed as change in absorbance per minute per gram of tissue.
The damaged brain tissues of mice were collected 24 h after MCAO surgery and homogenized in PBS buffer. The level of cytokines (TNF-α, IL-1β, IL-6) was quantified using commercial ELISA assay as aforementioned.
Videos were taken 24 h after MCAO surgery and neurological deficit scores were given by two people. The scores are divided into five grades for neurological scores of mice after cerebral ischemia.

[7] = 0.2 mg/kg (DOX) i.v. 4 h after i.t. LPS
[8] = first 16 h after LPS challenge, vs PBS
[9] = 0.2 mg/kg DOX i.v. 1 h after reperfusion, 22 h post-injection, vs free DOX and PBS

Substance: DOX-hyd-BSA NPs
- apoptotic cells by flow cytometry ([1]; 24 h, DOX 3 μg/mL): 89%
- Annexin V-FITC / 7AAD staining by confocal microscopy ([1]; 24 h treatment): contained staining of Annexin-V-FITC, and less staining of 7AAD
- tissue or cellular damage in H&E sections of heart, liver, spleen, lung, kidney [2]: did not show any noticeable signs of tissue or cellular damage
- neutrophils in BALF ([3]; 0.2 mg/kg (DOX) i.v. 4 h after i.t. LPS 10 mg/kg): surprisingly and dramatically shown to decrease compared to controls
- IL-1β in BALF [3, 7]: decreased
- IL-6 in BALF [3, 7]: decreased
- TNF-α in BALF [3, 7]: decreased
- serum stability (aggregation, diameter change) [4]: no aggregation (diameter change) was observed
- inflammation in other organs (MPO, TNF-α, IL-6, IL-1β) ([5]; 16 h and 72 h post-LPS challenge, vs PBS): significantly decreased inflammation in other organs
- neutrophil number and cytokine contents ([5]; 72 h after LPS challenge): resumed to their levels as in healthy mice
- cytokines in blood and lung BALF [5, 8]: decreased accordingly
- neutrophils in blood and lung BALF [5, 8]: dramatically decreased
- neutrophil production in the bone marrow ([5]; neutrophil counts compared with healthy mice): did not impair neutrophil production in the bone marrow
- cytokines in the brain (TNF-α, IL-1β, IL-6) [6, 9]: significantly reduced
- neutrophil numbers in the brain (MPO activity) [6, 9]: significantly reduced
- neurological deficits (behavior scores) ([6]; 0.2 mg/kg of DOX, 24 h after MCAO): enhanced mouse neurological recovery and improved mouse movements
